# Results as given in patent publication US20250059179A1, “Heterocyclic Compounds and Methods of Use” (AMGEN INC., priority 2021, published 2025).
# pIC50: −log10 of the molar value.
# Assays:
# [1] = molecular target: His-tagged KRAS G12D protein (Homo sapiens, UniProt P01116, G12D); test: KRAS G12D TR-FRET Assay; type: binding; conditions: biotinylated KRPep-2d substrate, 10 μM GDP;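 further: europium anti-His antibody paired with streptavidin-d2 as FRET partners, initial 30 min incubation, then peptide 1 h and detection reagents 1 h, all at room temperature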
# [2] = molecular target: GDP-bound KRAS protein (aa 1-169), containing both G12D and C118A amino acid substitutions (Homo sapiens, UniProt P01116, C118A/G12D); test: KRAS G12D Coupled Nucleotide Exchange Assay; type: biochemical; conditions: 2 h compound pre-incubation, SOS-mediated nucleotide exchange, cRAF AlphaScreen readout;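 further: IC50 obtained by fitting the AlphaScreen signal with a four-parameter logistic curve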
# Sequence of GDP-bound KRAS protein (aa 1-169), containing both G12D and C118A amino acid substitutions (P01116 1-169 isoform P01116-2 G12D/C118A): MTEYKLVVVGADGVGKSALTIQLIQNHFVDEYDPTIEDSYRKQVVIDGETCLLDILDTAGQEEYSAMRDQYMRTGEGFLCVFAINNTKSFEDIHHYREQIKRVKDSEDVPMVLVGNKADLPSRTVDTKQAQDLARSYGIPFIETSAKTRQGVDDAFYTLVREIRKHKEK
# Sequence of His-tagged KRAS G12D protein (P01116 1-188 isoform P01116-2 G12D): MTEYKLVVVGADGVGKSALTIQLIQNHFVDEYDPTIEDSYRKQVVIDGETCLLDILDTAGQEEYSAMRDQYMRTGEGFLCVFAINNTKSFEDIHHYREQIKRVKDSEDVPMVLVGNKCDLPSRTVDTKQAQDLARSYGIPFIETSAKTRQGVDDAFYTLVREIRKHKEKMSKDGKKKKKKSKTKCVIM
Structure (SMILES),pIC50 [1],Avg 2 h Coupled Exchange IC50 [2],pIC50 ([2]; read-out: Avg 2 h Coupled Exchange IC50)
"Nc1nc2c(-c3c(Cl)cc4c(N5C[C@H]6COC[C@@H](C5)N6)nc(OC[C@@]56CCCN5C[C@H](F)C6)nc4c3F)ccc(F)c2s1 [Example 42, 4-(4-((1R,5S)-3-oxa-7,9-diazabicyclo[3.3.1]nonan-7-yl)-6-chloro-8-fluoro-2-(((2R,7aS)-2-fluorotetrahydro-1H-pyrrolizin-7a(5H)-yl)methoxy)quinazolin-7-yl)-7-fluorobenzo[d] thiazol-2-amine]",7.92,0.012 µM,–
"CN1CCC[C@H]1COc1nc(N2CCNCC2)c2cc(F)c(-c3cccc4sc(N)nc34)c(F)c2n1 [Example 134, 4-(6,8-difluoro-2-(((S)-1-methylpyrrolidin-2-yl)methoxy)-4-(piperazin-1-yl)quinazolin-7-yl)benzo[d]thiazol-2-amine]",5.62,0.391 µM,–
"Cc1cc2c(N3CCNCC3)nc(OC[C@@H]3CCCN3C)nc2c(F)c1-c1cccc2sc(N)nc12 [Example 155, 4-(8-Fluoro-6-methyl-2-(((S)-1-methylpyrrolidin-2-yl)methoxy)-4-(piperazin-1-yl)quinazolin-7-yl)benzo[d]thiazol-2-amine]",6.73,0.04 µM,–
"Nc1nc2c(-c3c(Cl)cc4c(N5CCNCC5)nc(OCC56CCC(CC5)N6)nc4c3F)cccc2s1 [Example 75, 4-(2-(((1s,4s)-7-azabicyclo[2.2.1]heptan-1-yl)methoxy)-6-chloro-8-fluoro-4-(piperazin-1-yl)quinazolin-7-yl)benzo[d] thiazol-2-amine]",5.73,0.797 µM,–
"CN1C[C@H](F)C[C@H]1COc1nc(N2CCNCC2)c2cc(Cl)c(-c3cccc4sc(N)nc34)c(F)c2n1 [Example 49, 4-(6-chloro-8-fluoro-2-(((2S,4R)-4-fluoro-1-methyl-pyrrolidin-2-yl)methoxy)-4-(piperazin-1-yl)quinazolin-7-yl)benzo[d] thiazol-2-amine]",6.85,0.038 µM,–
"CN1C[C@@H](F)C[C@H]1COc1nc(N2CCNCC2)c2cc(Cl)c(-c3cccc4sc(N)nc34)c(F)c2n1 [Example 62, 4-(6-chloro-8-fluoro-2-(((2S,4S)-4-fluoro-1-methyl-pyrrolidin-2-yl)methoxy)-4-(piperazin-1-yl)quinazolin-7-yl)benzo[d] thiazol-2-amine]",6.17,0.394 µM,–
"Nc1nc2c(-c3c(Cl)cc4c(N5CCNCC5)nc(N5CC(N)C5)nc4c3F)cccc2s1 [Example 96, 4-[2-(3-aminoazetidin-1-yl)-6-chloro-8-fluoro-4-piperazin-1-yl-quinazolin-7-yl]-1,3-benzothiazol-2-amine]",–,1.251 µM,–
"Nc1nc2c(-c3c(Cl)cc4c(N5CCNCC5)nc(N5CC6(CC(O)c7nccn76)C5)nc4c3F)cccc2s1 (stereo not shown) [Example 108, 1′-[7-(2-amino-1,3-benzothiazol-4-yl)-6-chloro-8-fluoro-4-piperazin-1-yl-quinazolin-2-yl]spiro[6,7-dihydropyrrolo[1,2-a]imidazole-5,3′-azetidine]-7-ol]",–,1.97 µM,–
"Nc1nc2c(-c3c(Cl)cc4c(N5CCNCC5)nc(N5CC6CNC(C6)C5)nc4c3F)cccc2s1 (stereo not shown) [Example 114, 4-[6-chloro-8-fluoro-4-piperazin-1-yl-2-[3,6-diazabicyclo[3.2.1]octan-3-yl]quinazolin-7-yl]-1,3-benzothiazol-2-amine]",–,2.77 µM,–
"CN(C)[C@@H]1CCN(c2nc(N3CCNCC3)c3cc(Cl)c(-c4cccc5sc(N)nc45)c(F)c3n2)C1 [Example 95, 4-[6-chloro-2-[(3R)-3-(dimethylamino)pyrrolidin-1-yl]-8-fluoro-4-piperazin-1-yl-quinazolin-7-yl]-1,3-benzothiazol-2-amine]",–,1.18 µM,–
"Nc1nc2c(-c3c(Cl)cc4c(N5CCNCC5)nc(N5CC6(CCCN6)C5)nc4c3F)cccc2s1 [Example 84, 4-[6-chloro-2-(2,5-diazaspiro[3.4]octan-2-yl)-8-fluoro-4-piperazin-1-yl-quinazolin-7-yl]-1,3-benzothiazol-2-amine]",–,0.567 µM,–
"COC1CCN(C2CN(c3nc(N4CCNCC4)c4cc(Cl)c(-c5cccc6sc(N)nc56)c(F)c4n3)C2)CC1 [Example 88, 4-[6-chloro-8-fluoro-2-[3-(4-methoxy-1-piperidyl)azetidin-1-yl]-4-piperazin-1-yl-quinazolin-7-yl]-1,3-benzothiazol-2-amine]",–,0.706 µM,–
"CN1CCC2CN(c3nc(N4CCNCC4)c4cc(Cl)c(-c5cccc6sc(N)nc56)c(F)c4n3)CC21 (stereo not shown) [Example 98, 4-(6-chloro-8-fluoro-2-(1-methylhexahydropyrrolo[3,4-b]pyrrol-5(1H)-yl)-4-(piperazin-1-yl)quinazolin-7-yl)benzo[d]thiazol-2-amine]",–,1.31 µM,–
"Nc1nc2c(-c3c(Cl)cc4c(N5CCNCC5)nc(N5CCC6(CCN6)C5)nc4c3F)cccc2s1 (stereo not shown) [Example 109, 4-[6-chloro-8-fluoro-4-piperazin-1-yl-2-[1,7-diazaspiro[3.4]octan-7-yl]quinazolin-7-yl]-1,3-benzothiazol-2-amine]",–,2.17 µM,–
"Nc1nc2c(-c3c(Cl)cc4c(N5CCNCC5)nc(N5CCN6CCC5C6)nc4c3F)cccc2s1 (stereo not shown) [Example 107, 4-[6-chloro-8-fluoro-4-piperazin-1-yl-2-[1,4-diazabicyclo[3.2.1]octan-4-yl]quinazolin-7-yl]-1,3-benzothiazol-2-amine]",–,1.9 µM,–
"CNC1CCN(c2nc(N3CCNCC3)c3cc(Cl)c(-c4cccc5sc(N)nc45)c(F)c3n2)C1 (stereo not shown) [Example 97, 4-[6-chloro-8-fluoro-4-piperazin-1-yl-2-[3-(methylamino)pyrrolidin-1-yl]quinazolin-7-yl]-1,3-benzothiazol-2-amine]",–,1.27 µM,–

# Results, then the compound that gave them:
pIC50 [1],Avg 2 h Coupled Exchange IC50 [2],pIC50 ([2]; read-out: Avg 2 h Coupled Exchange IC50),Structure (SMILES)
7.14,0.023 µM,–,"CN1CCC[C@H]1COc1nc2c(F)c(-c3ccc(F)c4sc(N)nc34)c(Cl)cc2c(N2CCNCC2)c1C#N [Example 157, 7-(2-Amino-7-fluorobenzo[d]thiazol-4-yl)-6-chloro-8-fluoro-2-(((S)-1-methylpyrrolidin-2-yl)methoxy)-4-(piperazin-1-yl)quinoline-3-carbonitrile]"
5.28,1.09 µM,–,"Cc1cc(-c2c(Cl)cc3c(N4CCNCC4)nc(OC[C@@H]4CCCN4C)nc3c2F)c2nc(N)sc2c1 [Example 129, 4-(6-chloro-8-fluoro-2-(((S)-1-methylpyrrolidin-2-yl)methoxy)-4-(piperazin-1-yl)quinazolin-7-yl)-6-methylbenzo[d]thiazol-2-amine]"
7.06,0.079 µM,–,"Nc1nc2c(-c3c(Cl)cc4c(N5CCNCC5)nc(OCC56CCCN5CC(F)(F)C6)nc4c3F)cccc2s1 (stereo not shown) [Example 54, 4-(6-chloro-2-((2,2-difluorotetra-hydro-1H-pyrrolizin-7a(5H)-yl)methoxy)-8-fluoro-4-(piperazin-1-yl)quinazolin-7-yl)benzo[d] thiazol-2-amine]"
6.87,0.03 µM,–,"CN1CCC[C@H]1COc1nc(N2CCCNCC2)c2cc(Cl)c(-c3cccc4sc(N)nc34)c(F)c2n1 [Example 17, 4-(6-chloro-4-(1,4-diazepan-1-yl)-8-fluoro-2-(((S)-1-methylpyrrolidin-2-yl)methoxy)quinazolin-7-yl)benzo[d] thiazol-2-amine]"
–,2.48 µM,–,"CN1C(=O)CC2(CN(c3nc(N4CCNCC4)c4cc(Cl)c(-c5cccc6sc(N)nc56)c(F)c4n3)C2)n2ccnc21 [Example 113, 1′-[7-(2-amino-1,3-benzothiazol-4-yl)-6-chloro-8-fluoro-4-piperazin-1-yl-quinazolin-2-yl]-8-methyl-spiro[6H-imidazo[1,2-a]pyrimidine-5,3′-azetidine]-7-one]"
–,0.28 µM,–,"Nc1nc2c(-c3c(Cl)cc4c(N5CCNCC5)nc(N5CC(N6CCCCC6)C5)nc4c3F)cccc2s1 [Example 78, 4-[6-chloro-8-fluoro-4-piperazin-1-yl-2-[3-(1-piperidyl)azetidin-1-yl]quinazolin-7-yl]-1,3-benzothiazol-2-amine]"
–,1.73 µM,–,"CON(C)C1CN(c2nc(N3CCNCC3)c3cc(Cl)c(-c4cccc5sc(N)nc45)c(F)c3n2)C1 [Example 104, 4-[6-chloro-8-fluoro-2-[3-[methoxy(methyl)amino]azetidin-1-yl]-4-piperazin-1-yl-quinazolin-7-yl]-1,3-benzothiazol-2-amine]"
–,2.46 µM,–,"CCN1CCN(C2CN(c3nc(N4CCNCC4)c4cc(Cl)c(-c5cccc6sc(N)nc56)c(F)c4n3)C2)CC1 [Example 112, 4-[6-chloro-2-[3-(4-ethylpiperazin-1-yl)azetidin-1-yl]-8-fluoro-4-piperazin-1-yl-quinazolin-7-yl]-1,3-benzothiazol-2-amine]"
–,1.02 µM,–,"Nc1nc2c(-c3c(Cl)cc4c(N5CCNCC5)nc(N5CC(N6CCCC(O)C6)C5)nc4c3F)cccc2s1 (stereo not shown) [Example 92, 1-[1-[7-(2-amino-1,3-benzothiazol-4-yl)-6-chloro-8-fluoro-4-piperazin-1-yl-quinazolin-2-yl]azetidin-3-yl]piperidin-3-ol]"
–,–,6.76,CN(C)C1(C)CN(c2nc(N3CCNCC3)c3cc(Cl)c(-c4cccc5sc(N)nc45)c(F)c3n2)C1 [Example 76]
–,0.648 µM,–,"CC1(O)CN(C2CN(c3nc(N4CCNCC4)c4cc(Cl)c(-c5cccc6sc(N)nc56)c(F)c4n3)C2)C1 [Example 86, 1-[1-[7-(2-amino-1,3-benzothiazol-4-yl)-6-chloro-8-fluoro-4-piperazin-1-yl-quinazolin-2-yl]azetidin-3-yl]-3-methyl-azetidin-3-ol]"
